From PubChem BioAssay (NCI)
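In this assay, cells in 96-well plates receive the compound at five concentrations for 48 hours. Endpoints are linearly interpolated between the surrounding concentrations. Definition used: TGI = concentration required for complete inhibition of growth.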

Key:
Assay in all cases: growth of human tumour cells (NCI), 48 h
786-0 renal = tested on: 786-0 renal
A498 renal = tested on: A498 renal
A549 NSCLC = tested on: A549 NSCLC
ACHN renal = tested on: ACHN renal
CAKI-1 renal = tested on: CAKI-1 renal
CCRF-CEM leukemia = tested on: CCRF-CEM leukemia
COLO 205 colon = tested on: COLO 205 colon
DLD-1 colon = tested on: DLD-1 colon
DMS 114 small cell lung = tested on: DMS 114 small cell lung
DMS 273 small cell lung = tested on: DMS 273 small cell lung
EKVX NSCLC = tested on: EKVX NSCLC
HCC-2998 colon = tested on: HCC-2998 colon
HCT-116 colon = tested on: HCT-116 colon
HCT-15 colon = tested on: HCT-15 colon
HL-60(TB) leukemia = tested on: HL-60(TB) leukemia
HOP-62 NSCLC = tested on: HOP-62 NSCLC
IGROV1 ovarian = tested on: IGROV1 ovarian
K-562 leukemia = tested on: K-562 leukemia
KM12 colon = tested on: KM12 colon
KM20L2 colon = tested on: KM20L2 colon
LOX IMVI melanoma = tested on: LOX IMVI melanoma
LXFL 529 NSCLC = tested on: LXFL 529 NSCLC
M14 melanoma = tested on: M14 melanoma
M19-MEL melanoma = tested on: M19-MEL melanoma
MALME-3M melanoma = tested on: MALME-3M melanoma
MOLT-4 leukemia = tested on: MOLT-4 leukemia
NCI-H23 lung = tested on: NCI-H23 lung
NCI-H460 lung = tested on: NCI-H460 lung
NCI-H522 lung = tested on: NCI-H522 lung
OVCAR-3 ovarian = tested on: OVCAR-3 ovarian
OVCAR-4 ovarian = tested on: OVCAR-4 ovarian
OVCAR-5 ovarian = tested on: OVCAR-5 ovarian
OVCAR-8 ovarian = tested on: OVCAR-8 ovarian
RPMI-8226 leukemia = tested on: RPMI-8226 leukemia
RXF 393 renal = tested on: RXF 393 renal
RXF-631 renal = tested on: RXF-631 renal
SF-268 CNS = tested on: SF-268 CNS
SF-539 CNS = tested on: SF-539 CNS
SK-MEL-2 melanoma = tested on: SK-MEL-2 melanoma
SK-MEL-28 melanoma = tested on: SK-MEL-28 melanoma
SK-MEL-5 melanoma = tested on: SK-MEL-5 melanoma
SK-OV-3 ovarian = tested on: SK-OV-3 ovarian
SNB-19 CNS = tested on: SNB-19 CNS
SNB-75 CNS = tested on: SNB-75 CNS
SNB-78 CNS = tested on: SNB-78 CNS
SW-620 colon = tested on: SW-620 colon
TK-10 renal = tested on: TK-10 renal
U251 CNS = tested on: U251 CNS
UACC-257 melanoma = tested on: UACC-257 melanoma
UACC-62 melanoma = tested on: UACC-62 melanoma
UO-31 renal = tested on: UO-31 renal
HOP-18 NSCLC = tested on: HOP-18 NSCLC
HOP-92 NSCLC = tested on: HOP-92 NSCLC
HT29 colon = tested on: HT29 colon
NCI-H226 lung = tested on: NCI-H226 lung
SF-295 CNS = tested on: SF-295 CNS
SN12C renal = tested on: SN12C renal

Measured: TGI

CCc1cc(Cc2ccc(C)c(NC(=O)C(=O)C3C(=O)NC(=O)NC3=O)c2CC)cc(C)c1NC(=O)C(=O)C1C(=O)NC(=O)NC1=O
> 100 µM: 786-0 renal | A498 renal | A549 NSCLC | ACHN renal | CAKI-1 renal | CCRF-CEM leukemia | COLO 205 colon | DLD-1 colon | DMS 114 small cell lung | DMS 273 small cell lung | EKVX NSCLC | HCC-2998 colon | HCT-116 colon | HCT-15 colon | HL-60(TB) leukemia | HOP-62 NSCLC | IGROV1 ovarian | K-562 leukemia | KM12 colon | KM20L2 colon | LOX IMVI melanoma | LXFL 529 NSCLC | M14 melanoma | M19-MEL melanoma | MALME-3M melanoma | MOLT-4 leukemia | NCI-H23 lung | NCI-H460 lung | NCI-H522 lung | OVCAR-3 ovarian | OVCAR-4 ovarian | OVCAR-5 ovarian | OVCAR-8 ovarian | RPMI-8226 leukemia | RXF 393 renal | RXF-631 renal | SF-268 CNS | SF-539 CNS | SK-MEL-2 melanoma | SK-MEL-28 melanoma | SK-MEL-5 melanoma | SK-OV-3 ovarian | SNB-19 CNS | SNB-75 CNS | SNB-78 CNS | SW-620 colon | TK-10 renal | U251 CNS | UACC-257 melanoma | UACC-62 melanoma | UO-31 renal

S=c1c2ccccc2c(=S)n2n1CC=CC2
> 100 µM: 786-0 renal | A498 renal | A549 NSCLC | ACHN renal | CAKI-1 renal | CCRF-CEM leukemia | COLO 205 colon | DLD-1 colon | DMS 114 small cell lung | DMS 273 small cell lung | EKVX NSCLC | HCC-2998 colon | HCT-116 colon | HCT-15 colon | HL-60(TB) leukemia | HOP-18 NSCLC | HOP-92 NSCLC | HT29 colon | IGROV1 ovarian | K-562 leukemia | KM12 colon | KM20L2 colon | LOX IMVI melanoma | LXFL 529 NSCLC | M14 melanoma | M19-MEL melanoma | MALME-3M melanoma | MOLT-4 leukemia | NCI-H226 lung | NCI-H23 lung | NCI-H522 lung | OVCAR-3 ovarian | OVCAR-4 ovarian | OVCAR-5 ovarian | OVCAR-8 ovarian | RPMI-8226 leukemia | RXF 393 renal | RXF-631 renal | SF-268 CNS | SF-295 CNS | SF-539 CNS | SK-MEL-2 melanoma | SK-MEL-28 melanoma | SK-MEL-5 melanoma | SK-OV-3 ovarian | SN12C renal | SNB-19 CNS | SNB-75 CNS | SNB-78 CNS | SW-620 colon | TK-10 renal | U251 CNS | UACC-257 melanoma | UACC-62 melanoma | UO-31 renal
